Test system: patients with relapsed or refractory diffuse large B-cell lymphoma (R/R DLBCL)
Test: Phase Ib/II study of Pola-R-Len, safety: adverse events graded per NCI CTCAE Version 4.0
Format: in vivo, human
Conditions: in combination with polatuzumab vedotin 1.8 mg/kg and rituximab 375 mg/m^2; PO Days 1-21 of 28-day cycles
Protocol: Adverse events were assessed based on the National Cancer Institute Common Terminology Criteria for Adverse Events (NCI CTCAE; Version 4.0). Adverse events that are not specifically listed in the NCI CTCAE were graded as follows: • Grade 1: Mild; asymptomatic or mild symptoms; clinical or diagnostic observations only; or intervention not indicated. • Grade 2: Moderate; minimal, local, or non-invasive intervention indicated; or limiting age-appropriate instrumental activities of daily living. • Grade 3: Severe or medically significant, but not immediately life threatening; hospitalization or prolongation of hospitalization indicated; disabling; or limiting self-care activities of daily living. • Grade 4: Life-threatening consequences or urgent intervention indicated. • Grade 5: Death related to adverse event.
The following populations were defined: • The primary safety and efficacy populations included patients who received at least one dose of any component of the treatment combination. • The intent-to-treat population included patients enrolled in the study.

For Nc1cccc2c1CN(C1CCC(=O)NC1=O)C2=O (stereo not shown) [lenalidomide], the “recommended Phase II dose (RP2D)” value was 20 mg.

Reference: patent US20240115718A1, “METHODS OF USING ANTI-CD79B IMMUNOCONJUGATES TO TREAT DIFFUSE LARGE B-CELL LYMPHOMA” (Genentech, Inc., priority 2021, published 2024)
